The source of these data is patent US20260364186A1, “Chemical Conjugates, Compositions, and Methods of Preparation and Use Thereof” (Transfection Holdings Limited, priority 2022, published 2026).

Data set [1] has as its system monocytes. Nature of the data set: FACS uptake of BODIPY FL conjugates in PBMCs (Example 3). It is filed as cell-based, human. As to conditions: 135 nM. How it is done:
(§1) FIG. 3A. Conjugate compounds coupled to BODIPY FL were tested for uptake using 135 nM each conjugate and 4.5 minute incubation with human lymphocytes, monocytes and neutrophils (from a healthy donor). Mean fluorescent intensities (MFI). 1,000 cells (lymphocytes), 500 cells (monocytes) and 250 cells (neutrophils) sorted by FACS. Bars represent mean±SD. Results represent a single experiment done in duplicate.
(§2) In addition to this, 25 mL of full blood was collected from a healthy donor in lithium-heparin vacutainer. Peripheral blood mononuclear cells (PBMCs) were collected after ficoll separation. PBMCs then were centrifuge at 400 g for 5 minutes. Supernatant was removed from the cells and resuspended with 20 mL of HBSS with a final concentration of 417,500 cells/mL. Then, 479 μL of cells suspension were poured into Eppendorf tube and 1000 μL of 200 nM drug solution in HBSS were added to afford 135 nM final drug concentration, incubated at 37 °C for 5 minutes. After incubation time, PBMCs were centrifuged at 400 g for 5 minutes. Supernatant was removed from the cells and pellet resuspended with 200 μL of HBSS. Suspension was transferred to 96 well-plate and run on FACS machine, approximately 1,000-250 cells analysed. The FACS results output represented the mean of the fluorescence intensities (in arbitrary units) measured for cells sorted in every sample.

Data set [2] deals with neutrophils. Described as above. It counts as cell-based, human. To be noted: 135 nM. The protocol:
as §1, §2

The subject of data set [3] is melanoma tumours (NZM11 cells). Nature of the data set: Whole body fluorescent cryo-imaging, tumour targeting (Example 13). As to conditions: 0.7 mg/kg i.v., 1 hour post dosing. It is filed as in vivo, mouse. The protocol: (§3) Materials and methods: Compound 124 was supplied as a 10 mM stock solution in DMSO. NZM011 cells were grown in AMEM, 5% FBS, 5 μg/mL insulin, 5 μg/mL transferrin, 5 ng/mL sodium selenite at 37 °C with 5% O2, 90% N2 5% CO2. The study was performed in 6-week-old male NIH-III athymic mice (strain code 201). Work was carried out by Ichor Biosciences La Fayette NY, USA. Mice were injected on one flank with 5×10^6 NZM11 cells in a 50:50 matrigel:media suspension with a 22G needle. When tumours reach over 500 mm3 the mice were administered intravenously (tail vein) with a solution of compound 124 in phosphate buffered saline at a dose of 0.7 mg/kg. The mice were euthanized at 1 hour or 6 hours post dosing and frozen for cryoimaging. A control mouse received no tumour cells or compound 124 and was euthanized and frozen for cryoimaging at the same time as the treated mice.
(§4) Processed animals were cryoimaged imaged at BioInvision in Cleveland Ohio. Whole animal was sectioned at 40 microns and imaged using brightfield at fluorescent modes (503 nm). In-plane pixel size 10 microns. Mouse #1 with tumour on one flank at 500 mm3, treated with compound 124 (0.7 mg/kg) and euthanised 1 hour post treatment. Mouse #6 no tumour or compound 124 treatment euthanised on same day.

Data set [4] in a line: Whole body fluorescent cryo-imaging, tissue distribution (Example 13). It counts as in vivo, mouse. To be noted: 0.7 mg/kg i.v., 1 hour post dosing. How it is done:
as §3, §4

The test system of data set [5] is NZM011, NZM009, NZM012, NZM022 and NZM077 cells. Kind of data set: Flow cytometry uptake into metastatic melanoma lines (Example 11). It counts as cell-based, human. To be noted: 200 nM, 30 minutes. The protocol: FIG. 11: Uptake for compounds 124, 126, and 132 at 200 nM and 30 minute incubation with melanoma cell lines: NZM12 (NZM012) (BRAF V600E mutant metastatic melanoma, homozygous deletion CDKN2A and low invasive cell line), NZM77 (NZM077) (BRAF V600E mutant metastatic melanoma and missense NF1), NZM22 (NZM022) (BRAF G466A mutant metastatic melanoma, P53 241S/T mutant, NF1 non-frameshift insertion and PTEN epigenetic silencing). NZM9 (NZM009) (P53 179C/T mutant and homozygous silencing CDKN2A). NZM11 (NZM011) (BRAF V600E mutant metastatic melanoma and homozygous deletion CDKN2A), as positive control. Mean fluorescent intensities (MFI). 1,500-2,000 cells were obtained. Bars represent mean±SD. Results are from a single experiment done in triplicate. Cells were analysed by FACS.
Methods: For screening, NZM011, NZM009, NZM012, NZM022 and NZM077 cells were suspended at 250 cells per μL in MEMα media and 200 μL was dispensed into 96 well plates. The cells were left to settle for 24 hours for NZM011, NZM012 and NZM077 and 48 hours for NZM009 and NZM022 at 37 °C, 5% O2, 5% CO2. Before addition to the cells, 10 μL of 10 mM stock solutions in DMSO of compounds 124, 126, and 132 were diluted with 1% FBS MEMα media to give a 200 nM solution.
After the appropriate settle time, the media was removed from the 96 well plates and 200 μL of 200 nM conjugate solutions and DMSO control were dispensed to each well (in triplicate) and incubated for 30 minutes at 37 °C, 5% O2, 5% CO2. After 30 minutes, the media was removed and cells washed with PBS. Next, 100 μL of TrypLE trypsin (ThermoFisher Scientific) was added to each well and incubated for 5 minutes at 37 °C. After this, 150 μL of MEMα media (plus 1% FBS for NZM011, NZM012 and NZM077; plus 5% FBS for NZM009 and NZM022) were added. Cells were analysed by flow cytometry using a FACS biosort and FITC filter. Flow cytometry results represent the mean of the fluorescence intensities (in arbitrary units) measured for cells sorted in every sample.

Data set [6] concerns PBMCs / normal blood cells. Kind of data set: FACS uptake of BODIPY FL conjugates in PBMCs (Example 3). To be noted: 135 nM. It is filed as cell-based, human. How it is done:
as §1, §2

Entries after “also recorded” stand apart in the source; their conditions may differ.

Consider `CC1=CC(C)=[N+]2C1=Cc1ccc(CCCn3cc(CCNC(=O)/C=C/NC(=O)[C@@H]4OC(C)(C)OCC4(C)C)nn3)n1[B-]2(F)F` [Compound 125, (R,E)-N-((((3-[4,4-difluoro-5,7-dimethyl-4-bora-3a,4a-diaza-s-indacene-3-yl]propyl)-1H-1,2,3-triazol-4-yl)eth-ylamino)-3-oxoprop-1-enyl)-2,2,5,5-tetramethyl-1,3-dioxane-4-carboxamide], for which the “targeting / fluorescence intensities” value in data set [1] and in data set [2] was “showed targeting” throughout.

`CC1=CC(C)=[N+]2C1=Cc1ccc(CCCn3cc(CCNC(=O)/C=C/NC(=O)[C@H](O)C(C)(C)CO)nn3)n1[B-]2(F)F` [Compound 124]: the “124-specific fluorescence in tumour” value in data set [3] is 124-specific fluorescence was also seen in the region of the implanted tumour and Specific 124-fluorescence was observed in the region of the tumour and specific green fluorescence from compound 124 was seen in the proximity of the tumour and specifically targeted and bound to tumour in vivo. In data set [4], the “124-specific fluorescence in bladder” value is listed as “strong 124-specific fluorescence; also recorded: Specific 124-fluorescence was observed; also recorded: strong fluorescence observed in the bladder; also recorded: Fluorescence specific for compound 124 was seen”; the “124-specific fluorescence in kidneys” value was 124-specific fluorescence was observed in the kidney medulla and kidneys (mainly renal medulla); the “fluorescence in any other tissues” value was “No fluorescence”; the route of excretion result is reported as “renal clearance; also recorded: renal route”. For the same molecule, the “uptake, in words” value in data set [5] is “highest uptake levels; also recorded: consistent, selective and high level of uptake”. Moreover, the “times greater uptake than conjugate 132” value in data set [5] (five cell lines) is recorded as 1.5-3 times. In addition, in data set [6], the uptake entry was “no significant uptake”.
